Measured values published in ChEMBL document CHEMBL4420068, “Samhd1 modulation for treating resistance to cancer therapy” (2018).
Converted amounts (≈) assume the structure as drawn. The source made the active and inactive calls. The rule behind the calls is not given here.

Legend:
[1] = test system: THP-1; test: Ratio of cytotoxic IC50 for human THP1 cells with constitutively expressing high SAMHD1 expression to cytotoxic IC50 for parental human THP1 cells expressing low SAMHD1 expression; assay type: functional
[2] = test system: THP-1; test: Ratio of cytotoxic IC50 for human THP1 (+/+) cells expressing wild type SAMHD1 to cytotoxic IC50 for human THP1 cells with CRISP/CAS9 SAMHD1 knockout; assay type: functional
[3] = biological target: Deoxynucleoside triphosphate triphosphohydrolase SAMHD1 (Homo sapiens) (UniProt Q9Y3Z3); test: Substrate activity at SAMHD1 (unknown origin) expressed in bacterial system expressed in bacteria assessed as triphospho-hydolase activity by measuring cytarabine tri-phosphate […]
[4] = test system: MOLM-13; test: Cytotoxic activity against human MOLM13 cells assessed as reduction in cell viability at 10 to 50 ug/ml in presence of lentiviral protein X- virus-like particles incubated for 96 hrs by MTT assay; assay type: functional, cell-based
[5] = test system: HEL; test: Cytotoxic activity against human HEL cells assessed as reduction in cell viability at 10 to 50 ug/ml in presence of lentiviral protein X- virus-like particles incubated for 96 hrs by MTT assay; assay type: functional, cell-based
[6] = test system: HL-60; test: Cytotoxic activity against human HL60 cells assessed as reduction in cell viability at 10 to 50 ug/ml in presence of lentiviral protein X- virus-like particles incubated for 96 hrs by MTT assay; assay type: functional, cell-based
[7] = test system: U-251; test: Cytotoxic activity against human U251MG cells assessed as reduction in cell viability incubated for 96 hrs by MTT assay; assay type: functional, cell-based; conditions: U-251, 96 h

Deoxynucleoside triphosphate triphosphohydrolase SAMHD1 (Homo sapiens), sequence (Q9Y3Z3 whole entry): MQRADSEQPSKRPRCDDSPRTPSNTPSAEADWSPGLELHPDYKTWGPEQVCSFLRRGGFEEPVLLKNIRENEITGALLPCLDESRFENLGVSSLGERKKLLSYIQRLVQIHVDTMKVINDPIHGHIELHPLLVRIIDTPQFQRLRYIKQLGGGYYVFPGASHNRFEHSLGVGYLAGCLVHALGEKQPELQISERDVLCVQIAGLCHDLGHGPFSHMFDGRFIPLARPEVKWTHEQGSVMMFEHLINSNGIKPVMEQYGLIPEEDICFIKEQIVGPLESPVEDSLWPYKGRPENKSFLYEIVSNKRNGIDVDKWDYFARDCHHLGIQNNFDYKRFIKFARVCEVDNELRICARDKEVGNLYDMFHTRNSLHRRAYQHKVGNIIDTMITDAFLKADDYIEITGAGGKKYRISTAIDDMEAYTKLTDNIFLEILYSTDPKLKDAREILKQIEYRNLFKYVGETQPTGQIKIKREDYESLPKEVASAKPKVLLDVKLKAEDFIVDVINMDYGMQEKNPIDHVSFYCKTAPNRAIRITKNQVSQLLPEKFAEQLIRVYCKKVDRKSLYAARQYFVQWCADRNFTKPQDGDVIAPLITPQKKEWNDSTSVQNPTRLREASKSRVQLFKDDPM

| Compound | Ratio IC50 [1] | Ratio IC50 [2] | also measured |
| --- | --- | --- | --- |
| COc1nc(N)nc2c1ncn2[C@@H]1O[C@H](CO)[C@@H](O)[C@@H]1O [NELARABINE] | 4 | – | – |
| Nc1ncn([C@H]2C[C@H](O)[C@@H](CO)O2)c(=O)n1 [DECITABINE] | 6 | 9 | – |
| Nc1nc(Cl)nc2c1ncn2[C@H]1C[C@H](O)[C@@H](CO)O1 [CLADRIBINE] | 2 | 1 | – |
| Nc1nc(Cl)nc2c1ncn2[C@@H]1O[C@H](CO)[C@@H](O)[C@@H]1F [CLOFARABINE] | 11 | – | – |
| Nc1nc(F)nc2c1ncn2[C@@H]1O[C@H](CO)[C@@H](O)[C@@H]1O [FLUDARABINE] | 6 | – | – |
| Nc1ccn([C@@H]2O[C@H](CO)[C@@H](O)[C@@H]2O)c(=O)n1 [CYTARABINE] | – | – | Activity [3]: Active; Activity [4]: Active; Activity [5]: Active; Activity [6]: Active; IC50 [7]: 0.022 µg/mL (≈ 0.0905 µM) |
| COc1cccc2c1C(=O)c1c(O)c3c(c(O)c1C2=O)C[C@@](O)(C(C)=O)C[C@@H]3O[C@H]1C[C@H](N)[C@H](O)[C@H](C)O1 [DAUNORUBICIN] | 1 | 1 | – |
| NC(=O)c1ncn([C@@H]2O[C@H](CO)[C@@H](O)[C@H]2O)n1 [RIBAVIRIN] | 0.5 | 0.5 | – |
| Nc1ccn([C@@H]2O[C@H](CO)[C@@H](O)C2(F)F)c(=O)n1 [GEMCITABINE] | 0.5 | 1 | – |
| Nc1nc2[nH]cnc2c(=S)[nH]1 [THIOGUANINE] | 1 | 1 | Activity [3]: Active |
